Data from ChEMBL document CHEMBL3997816, “Discovery and characterization of [(cyclopentyl)ethyl]benzoic acid inhibitors of microsomal prostaglandin E synthase-1” (Bioorg Med Chem Lett, 2017).

Molecular target: T1, Prostaglandin E synthase (Homo sapiens, UniProt O14684)
T1 sequence (O14684 whole entry): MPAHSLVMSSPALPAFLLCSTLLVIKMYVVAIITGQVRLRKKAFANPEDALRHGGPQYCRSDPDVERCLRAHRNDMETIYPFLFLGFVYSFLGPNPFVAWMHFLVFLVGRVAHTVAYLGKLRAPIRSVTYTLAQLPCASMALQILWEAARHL
Assay: Inhibition of human mPGES1 expressed in HEK293 microsomes assessed as reduction in PGE2 production using PGH2 as substrate after 2.5 mins by LC-MS analysis
Conditions: not given

Compound	IC50
O=C(O)c1ccccc1CC[C@@H]1CCC[C@@H]1NC(=O)C1CCN(c2ccc(C(F)(F)F)cn2)CC1	2 nM
O=C(O)c1ccc(F)cc1CC[C@@H]1CCC[C@@H]1NC(=O)C1CCN(c2ccc(C(F)(F)F)cc2)CC1	1 nM
Cc1ccc(C(=O)O)c(CC[C@@H]2CCC[C@@H]2NC(=O)C2CCN(c3ccc(C(F)(F)F)cc3)CC2)c1	1 nM
CC(C)(C)C(=O)N[C@H]1CCC[C@H]1CNc1cc(Cl)ccc1C(=O)O	43 nM
O=C(O)c1ccc(Cl)cc1CC[C@@H]1CCC[C@@H]1NC(=O)C1CCN(c2ccc(C(F)(F)F)cc2)CC1	1 nM
O=C(O)c1cccnc1CC[C@@H]1CCC[C@@H]1NC(=O)C1CCN(c2ccc(C(F)(F)F)cc2)CC1	6 nM

Molecular target: T2, Prostaglandin E synthase (Homo sapiens) (UniProt O14684)
T2 sequence (whole entry): T1 sequence (O14684 whole entry)
Assay: (§1) Inhibition of mPGES1 in human whole blood assessed as reduction in LPS-induced PGE2 production preincubated for 30 mins followed by LPS addition measured after 20 to 24 hrs by LC-MS analysis
Conditions: not given

Compound	IC80
O=C(O)c1ccccc1CC[C@@H]1CCC[C@@H]1NC(=O)C1CCN(c2ccc(C(F)(F)F)cn2)CC1	267 nM
O=C(O)c1ccc(F)cc1CC[C@@H]1CCC[C@@H]1NC(=O)C1CCN(c2ccc(C(F)(F)F)cc2)CC1	41 nM
Cc1ccc(C(=O)O)c(CC[C@@H]2CCC[C@@H]2NC(=O)C2CCN(c3ccc(C(F)(F)F)cc3)CC2)c1	10 nM
O=C(O)c1ccc(Cl)cc1CC[C@@H]1CCC[C@@H]1NC(=O)C1CCN(c2ccc(C(F)(F)F)cc2)CC1	5 nM
O=C(O)c1cccnc1CC[C@@H]1CCC[C@@H]1NC(=O)C1CCN(c2ccc(C(F)(F)F)cc2)CC1	146 nM

Molecular target: T1, Prostaglandin E synthase
Assay: as §1
Conditions: not given

Compound	IC50
O=C(O)c1ccccc1CC[C@@H]1CCC[C@@H]1NC(=O)C1CCN(c2ccc(C(F)(F)F)cn2)CC1	34 nM
O=C(O)c1ccc(F)cc1CC[C@@H]1CCC[C@@H]1NC(=O)C1CCN(c2ccc(C(F)(F)F)cc2)CC1	6 nM
Cc1ccc(C(=O)O)c(CC[C@@H]2CCC[C@@H]2NC(=O)C2CCN(c3ccc(C(F)(F)F)cc3)CC2)c1	3 nM
CC(C)(C)C(=O)N[C@H]1CCC[C@H]1CNc1cc(Cl)ccc1C(=O)O	8910 nM
O=C(O)c1ccc(Cl)cc1CC[C@@H]1CCC[C@@H]1NC(=O)C1CCN(c2ccc(C(F)(F)F)cc2)CC1	1 nM
O=C(O)c1cccnc1CC[C@@H]1CCC[C@@H]1NC(=O)C1CCN(c2ccc(C(F)(F)F)cc2)CC1	21 nM

Tested on: not listed separately
Assay: Clearance in rat at 1 mg/kg, iv
Type: ADME, organism-based
Conditions: in vivo

Compound	clearance
O=C(O)c1ccccc1CC[C@@H]1CCC[C@@H]1NC(=O)C1CCN(c2ccc(C(F)(F)F)cn2)CC1	6 mL/min/kg
O=C(O)c1ccc(F)cc1CC[C@@H]1CCC[C@@H]1NC(=O)C1CCN(c2ccc(C(F)(F)F)cc2)CC1	12 mL/min/kg
Cc1ccc(C(=O)O)c(CC[C@@H]2CCC[C@@H]2NC(=O)C2CCN(c3ccc(C(F)(F)F)cc3)CC2)c1	9 mL/min/kg
O=C(O)c1ccc(Cl)cc1CC[C@@H]1CCC[C@@H]1NC(=O)C1CCN(c2ccc(C(F)(F)F)cc2)CC1	16 mL/min/kg
O=C(O)c1cccnc1CC[C@@H]1CCC[C@@H]1NC(=O)C1CCN(c2ccc(C(F)(F)F)cc2)CC1	38 mL/min/kg

Molecular target: CYP2C9 (Homo sapiens, UniProt P11712)
Assay: Inhibition of CYP2C9 (unknown origin) in microsomes at 10 uM relative to control
Type: ADME
Conditions: not given

Sequence of CYP2C9 (P11712 whole entry): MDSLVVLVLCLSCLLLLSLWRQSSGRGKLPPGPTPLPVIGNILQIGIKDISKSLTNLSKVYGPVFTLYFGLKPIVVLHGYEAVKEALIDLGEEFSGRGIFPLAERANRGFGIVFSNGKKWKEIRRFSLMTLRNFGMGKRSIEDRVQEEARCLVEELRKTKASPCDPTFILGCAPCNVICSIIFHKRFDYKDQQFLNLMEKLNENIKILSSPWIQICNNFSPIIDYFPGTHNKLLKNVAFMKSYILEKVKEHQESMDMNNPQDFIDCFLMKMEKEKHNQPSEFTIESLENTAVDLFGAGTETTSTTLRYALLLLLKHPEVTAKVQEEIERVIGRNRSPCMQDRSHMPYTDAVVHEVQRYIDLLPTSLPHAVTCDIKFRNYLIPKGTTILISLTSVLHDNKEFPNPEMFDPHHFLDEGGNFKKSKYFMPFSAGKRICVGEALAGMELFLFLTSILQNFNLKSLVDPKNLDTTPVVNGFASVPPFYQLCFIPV

Compound	inhibition at 10 µM
O=C(O)c1ccccc1CC[C@@H]1CCC[C@@H]1NC(=O)C1CCN(c2ccc(C(F)(F)F)cn2)CC1	22%
O=C(O)c1ccc(F)cc1CC[C@@H]1CCC[C@@H]1NC(=O)C1CCN(c2ccc(C(F)(F)F)cc2)CC1	40%
Cc1ccc(C(=O)O)c(CC[C@@H]2CCC[C@@H]2NC(=O)C2CCN(c3ccc(C(F)(F)F)cc3)CC2)c1	56%
O=C(O)c1ccc(Cl)cc1CC[C@@H]1CCC[C@@H]1NC(=O)C1CCN(c2ccc(C(F)(F)F)cc2)CC1	51%
